{"source": "patent US20090163551A1", "about": "“Compositions and Methods for Treating Diseases” (Novartis AG, priority 2006, published 2009)", "key": {"5-HT receptors": {"test_system": "5-HT receptors", "assay": "5-HT concentration-response curve in antral circular muscle strips", "assay_type": "cell-based, rat", "conditions": "5-HT contraction"}, "[1]": {"test_system": "circular muscle strips from the gastric antrum", "assay": "Contractile responses to EFS of enteric nerves in antral muscle strips of pretreated indomethacin rats", "assay_type": "in vivo, rat", "conditions": "for Regression Analysis Slope: linear regression of EFS (0.5 ms, 1-15 Hz) frequency-response, indomethacin-treated rats, mean ± SEM, 5-6 rats per group"}, "[2]": {"test_system": "rat model of indomethacin-induced gastric mucosal ulceration", "assay": "Indomethacin-induced gastric mucosal ulceration (ulceration index)", "assay_type": "in vivo", "conditions": "rats; tegaserod 1 mg/kg, omeprazole 20 mg/kg i.p. b.i.d. one day before and 30 min prior to indomethacin 50 mg/kg intragastric; 6 h post-indomethacin; vs vehicle", "procedure": "Male Sprague-Dawley rats (Charles River, Laboratories, Wilmington, Mass.) weighing 250-300 g were housed two in a cage at standard conditions (21-23° C., controlled humidity, 12 hour light/dark cycle). The animals were allowed to acclimate for one week prior to initiation of drug treatment. The experimental procedures were approved by the Animal Care and Use Committees at the V.A. Medical Center and the University of Oklahoma Health Science Center, Oklahoma City, Okla.\n(§1) Prior to the experiment the rats were fasted overnight with free access to water. On the day of experiment the rats received intragastric gavage of 50 mg/kg indomethacin dissolved in 2% NaCO3 and brought to a volume of 1.5 mL in saline (pH 6.8). Indomethacin was given at 7:30 A.M. and the animals were then placed in their home cage with free access to food and water. The rats were euthanized 6 h post-indomethacin infusion, the stomach was isolated and placed in Ca^2+-free Krebs buffer aerated with 95% O2 and 5% CO2.\nDrugs were prepared fresh for each experiment and stored at 4° C. between treatments. […]\n(§2) The stomach was cut along the small curvature, cleansed of ingested food and the fundus was separated from the glandular portion of the stomach. […] The total length of hemorrhagic lesions, which were approximately 1 mm wide, was measured and served as an index of ulceration. […]"}, "[3]": {"test_system": "myeloperoxidase (MPO) activity", "assay": "Mucosal myeloperoxidase activity after indomethacin", "assay_type": "in vivo, rat", "conditions": "rats; tegaserod 1 mg/kg, omeprazole 20 mg/kg i.p. pretreatment; glandular stomach 6 h after indomethacin 50 mg/kg", "procedure": "as §1\nDrugs were prepared fresh for each experiment and stored at 4° C. between treatments. […] A separate control group received treatment with propylene glycol only. […]\nas §2\nFollowing dissection, the mucosal tissue was snap-frozen in liquid nitrogen and stored at −80° C. and MPO activity was assayed simultaneously. […] MPO activity was expressed as equivalent to the activity of the relative standard (ng of HRP) converting the same amount of TMB substrate for 10 min at room temperature. […]"}, "[4]": {"test_system": "circular muscle strips from the gastric antrum", "assay": "Contractile response to KCl (80 mM) in antral circular muscle strips of pretreated indomethacin rats", "assay_type": "in vivo, rat", "conditions": "strips from indomethacin-treated rats pretreated with tegaserod 1 mg/kg, omeprazole 20 mg/kg, vs vehicle"}, "[5]": {"test_system": "circular muscle strips from the gastric antrum", "assay": "Contractile responses to carbachol in antral circular muscle strips of pretreated indomethacin rats", "assay_type": "in vivo, rat", "conditions": "strips from indomethacin-treated rats pretreated with tegaserod 1 mg/kg, omeprazole 20 mg/kg; vs vehicle"}, "[6]": {"test_system": "circular muscle strips from the gastric antrum", "assay": "Contractile responses to 5-HT in antral circular muscle strips of pretreated indomethacin rats", "assay_type": "in vivo, rat", "conditions": "strips from indomethacin-treated rats pretreated with tegaserod 1 mg/kg, omeprazole 20 mg/kg; vs vehicle"}, "[7]": {"test_system": "smooth muscle muscarinic receptors", "assay": "Carbachol concentration-response curve in antral circular muscle strips", "assay_type": "cell-based, rat", "conditions": "carbachol contraction"}, "enteric nerves": {"test_system": "enteric nerves", "assay_type": "cell-based, rat"}, "[8]": {"conditions": "second group not named in the sentence (indomethacin-treated rats receiving vehicle)"}, "[9]": {"conditions": "EFS 0.5 ms, 1-15 Hz, strips from indomethacin-treated rats pretreated with tegaserod 1 mg/kg, omeprazole 20 mg/kg"}, "[10]": {"conditions": "strips from vehicle pretreated rats receiving indomethacin"}}, "note": "“Also recorded” adds a separate entry of the source. Structures can show the parent of a compound that is named as a salt.", "data": [{"smiles": "NCCc1c[nH]c2ccc(O)cc12", "note": "[5-HT, 5-hydroxytryptamine creatinine sulfate]", "values": [{"measurement": "Hill slope", "setting": "5-HT receptors; [8]", "result": 0.65}, {"measurement": "log EC50", "setting": "5-HT receptors; [8]", "result": 6.839}, {"measurement": "Hill slope", "setting": "5-HT receptors; strips from naïve rats", "result": 0.48}, {"measurement": "log EC50", "setting": "5-HT receptors; strips from naïve rats", "result": 6.299}]}, {"smiles": "COc1ccc2[nH]c([S+]([O-])Cc3ncc(C)c(OC)c3C)nc2c1", "note": "(stereo not drawn) [Omeprazole, omeprazole]", "values": [{"measurement": "Regression Analysis Slope", "setting": "[1]", "result": "78.8 ± 9.5"}]}, {"smiles": "CCCCCNC(=N)NN=Cc1c[nH]c2ccc(OC)cc12", "note": "[Tegaserod, 3-(5-methoxy-1H-indol-3-ylmethylene)-N-pentylcarbazimidamide]", "values": [{"measurement": "formation of gastric lesions (ulceration index)", "setting": "[2]", "result": "reduced gastric ulceration; also recorded: significantly reduced the formation of gastric lesions"}, {"measurement": "mucosal MPO activity", "setting": "[3]", "result": "reduced gastric ulceration and mucosal inflammation; also recorded: inhibited MPO activity to levels that were not significantly different from those in naïve animals"}, {"measurement": "amplitude of KCl-induced contractions", "setting": "[4]", "result": "showed a tendency to prevent the development of hypercontractile responses to KCl, however in the effect of neither of the drugs reached statistical significance"}, {"measurement": "maximal carbachol-induced contraction", "setting": "[5]", "result": "not significantly different"}, {"measurement": "amplitude of the maximal response to 5-HT", "setting": "[6]", "result": "significant reduction"}, {"measurement": "increase of contractile responses to EFS", "setting": "[1]; [9]", "result": "prevented the increase of contractile responses to EFS"}, {"measurement": "linear frequency-response relationship of EFS contractile responses", "setting": "[1]; [9]", "result": "preserved the linear frequency-response relationship; also recorded: protected the linear increase in the amplitude of contractile responses"}, {"measurement": "Indomethacin-induced hypercontractility (KCl, carbachol, 5-HT, EFS; overall statement)", "setting": "[1]; antral circular muscle strips, tegaserod 1 mg/kg, omeprazole 20 mg/kg pretreatment", "result": "significantly attenuated"}, {"measurement": "Regression Analysis Slope", "setting": "[1]", "result": "51.9 ± 5.1"}]}, {"smiles": "C[N+](C)(C)CCOC(N)=O.[Cl-]", "note": "[carbachol, carbamylcholine chloride]", "values": [{"measurement": "Hill slope", "setting": "[7]; strips from naïve rats", "result": 1.07}, {"measurement": "Hill slope", "setting": "[7]; [10]", "result": 1.11}, {"measurement": "log EC50", "setting": "[7]; [10]", "result": "−7.32"}]}, {"smiles": "NC1=N[C@H](O)[C@H]2[C@H]3O[C@]4(O)O[C@@H]([C@@H](O)[C@@]2(N1)[C@@H]4O)[C@]3(O)CO", "note": "[tetrodotoxin]", "values": [{"measurement": "inhibitory and excitatory responses to EFS", "setting": "enteric nerves", "result": "abolished"}]}]}
